≈ marks a conversion by molar mass, not a printed value. Where two headings read alike, the source gives them in different places. Non-standard residues stand in square brackets, D forms with d. Residues, ends and D or L forms follow the SMILES beside them. *: point of attachment. Decanoyl = CCCCCCCCCC(=O)*; dOrn = NCCC[C@@H](N)C(=O)O; Orn = NCCC[C@H](N)C(=O)O
What was measured:
Acinetobacter baumannii = assay type: cell-based
Experimental: (§1) Wang resins were purchased from Matrix Innovation. Reagents for peptide synthesis were purchased from P3 BioSystems, Chempep, and Chem-Impex International. The fluorescent dyes DiBAC4 and SYTOX were purchased from Thermo Fisher Scientific, and media were prepared from premixed powders: brain heart infusion for S. sobrinus and L. rhamnosus (Hardy Diagnostics), yeast extract-peptone-dextrose for C. albicans, lysogeny broth (LB) for all other bacteria (BD Biosciences), and McCoy’s 5A medium with 10% fetal bovine serum for HT-29 cells (American Type Culture Collection). All other chemicals and consumables were purchased from Sigma-Aldrich and VWR International. Paenimucillin 4F for in vivo studies was purchased from Ontores Biotechnologies as a high-performance liquid chromatography (HPLC)-purified peptide and used as is. Dye assays were performed in a Gen5 microtiter plate reader (Biotek Instruments). Liquid chromatography-mass spectrometry (LC-MS) analyses were performed by using an Acquity system (Waters Corporation).
(§2) Standard susceptibility assays were performed in LB medium in 96-well microtiter plates to determine the MIC by the broth microdilution method in accordance with protocols recommended by Clinical and Laboratory Standards Institute ([35]). Cytotoxicity was assessed using human HT-29 cells based on a similar broth microdilution method ([36]). All assays were performed in duplicate. For the cytotoxicity assay, 5,000 HT-29 cells per well were seeded into a microtiter plate and cultured for 24 h at 37°C in a 5% CO2 atmosphere. Peptides were supplemented at concentrations ranging from 128 to 0.5 μg/ml, and the cells were incubated for another 20 h. Growth media were removed, 3-(4,5-dimethylthiazol-2-yl)-2,5-diphenyltetrazolium bromide (MTT) was added to all wells (220 μl per well at 0.5 mg/ml), the mixture was incubated for 4 h, and then the media were discarded. Cell viability was determined by visual inspection.

Streptococcus sobrinus = assay type: cell-based; details: 24 h
Experimental: as §1, §2

Enterococcus faecalis = assay type: cell-based; details: 24 h
Experimental: as §1, §2

Bacillus subtilis = assay type: cell-based; details: 24 h
Experimental: as §1, §2

Staphylococcus aureus = assay type: cell-based; details: 24 h
Experimental: as §1, §2

Lactobacillus rhamnosus = assay type: cell-based; details: 24 h
Experimental: as §1, §2

Enterococcus faecium = assay type: cell-based
Experimental: as §1, §2

[1] = tested on: A. baumannii clinical isolate 1795; assay type: cell-based, Acinetobacter baumannii; details: clinical isolate 1795, 24 h
Experimental: as §1, §2

[2] = tested on: A. baumannii clinical isolate 1797; assay type: cell-based, Acinetobacter baumannii; details: clinical isolate 1797, 24 h
Experimental: as §1, §2

[3] = tested on: A. baumannii clinical isolate 1788; assay type: cell-based, Acinetobacter baumannii; details: clinical isolate 1788, 24 h
Experimental: as §1, §2

[4] = tested on: A. baumannii clinical isolate 1790; assay type: cell-based, Acinetobacter baumannii; details: clinical isolate 1790, 24 h
Experimental: as §1, §2

[5] = tested on: A. baumannii clinical isolate 1791; assay type: cell-based, Acinetobacter baumannii; details: clinical isolate 1791, 24 h
Experimental: as §1, §2

[6] = tested on: A. baumannii clinical isolate S3; assay type: cell-based, Acinetobacter baumannii; details: clinical isolate S3, 24 h
Experimental: as §1, §2

[7] = tested on: A. baumannii clinical isolate S5; assay type: cell-based, Acinetobacter baumannii; details: clinical isolate S5, 24 h
Experimental: as §1, §2

C. albicans = experiment: Toxicity assessment, MIC against C. albicans; assay type: cell-based, Candida albicans; details: Brady lab strain; yeast extract-peptone-dextrose; surrogate for cytotoxicity; duplicate
Experimental: as §1, with “Liquid chromatography-mass spectrometry (LC-MS) analyses were performed by using an Acquity system (Waters Corporation).” left out
Standard susceptibility assays were performed in LB medium in 96-well microtiter plates to determine the MIC by the broth microdilution method in accordance with protocols recommended by Clinical and Laboratory Standards Institute ([35]). Cytotoxicity was assessed using human HT-29 cells based on a similar broth microdilution method ([36]). […] Cell viability was determined by visual inspection.

Enterobacter cloacae = assay type: cell-based; details: 24 h
Experimental: as §1, §2

Pseudomonas aeruginosa = assay type: cell-based; details: 24 h
Experimental: as §1, §2

Klebsiella pneumoniae = assay type: cell-based; details: 24 h
Experimental: as §1, §2

[8] = tested on: MDR A. baumannii strain AB5075; experiment: Rat cutaneous wound model, efficacy; assay type: in vivo, Sprague-Dawley rats; details: rat wound infected with AB5075 (500 CFU); topical 10 mg/ml twice daily from 0.5 h postinoculation; four wounds, ±1 SD
Experimental: The rat cutaneous wound model was used as described previously ([21]). Protocols for animal studies were approved by the Rutgers University Institutional Animal Care and Use Committee. All animals were humanely euthanized at the study endpoint by following the AVMA Guidelines for the Euthanasia of Animals. Immunocompetent Sprague-Dawley female rats (~200 g) were anesthetized by intraperitoneal injection of 100 mg/kg ketamine plus 10 mg/kg xylazine. Using a 1.0-cm-diameter disposable biopsy punch, two symmetrical wounds were created on the dorsum of each rat. A circular gauze dressing 8 mm in diameter was saturated overnight with either vehicle or 4F at 10 mg/ml in sterile centrifuge tubes. To assess tolerability, the rats were weighed daily and observed for wound healing, behavior changes, and visible adverse drug effects for 5 days. To assess efficacy, A. baumannii strain AB5075 was grown overnight and the culture was diluted to provide the challenge inoculum (500 CFU) as 50 μl of bacterial suspension in 0.9% (wt/vol) NaCl. A circular gauze dressing 8 mm in diameter was saturated overnight with vehicle, tetracycline, or 4F at 10 mg/ml in sterile centrifuge tubes. These saturated dressings were topically applied to the wound site with sterile forceps twice daily, starting at 30 min postinoculation, for 6 days. Rats were observed twice daily for morbidity and possible signs of acute toxicity. Two and four independent cutaneous wounds were tested in tolerability and efficacy assessments, respectively.

[9] = tested on: MDR A. baumannii strain AB5075; experiment: microbe, parasite or virus in culture; assay type: cell-based, Acinetobacter baumannii; details: Acinetobacter baumannii; MDR strain AB5075; read-out: in vitro MIC, A. baumannii AB5075
Experimental: as §2

Row | SMILES | MIC Streptococcus sobrinus (Streptococcus sobrinus) [µg/mL] | MIC Enterococcus faecalis (Enterococcus faecalis) [µg/mL] | MIC Bacillus subtilis (Bacillus subtilis) [µg/mL] | MIC Staphylococcus aureus (Staphylococcus aureus) [µg/mL] | MIC Lactobacillus rhamnosus (Lactobacillus rhamnosus) [µg/mL] | MIC Enterobacter cloacae (Enterobacter cloacae) [µg/mL] | MIC Acinetobacter baumannii (Acinetobacter baumannii; 24 h) [µg/mL] | MIC Pseudomonas aeruginosa (Pseudomonas aeruginosa) [µg/mL] | MIC Klebsiella pneumoniae (Klebsiella pneumoniae) [µg/mL] | MIC Enterococcus faecium (Enterococcus faecium; 24 h) [µg/mL] | other results
1 | CCCCCCCCCC(=O)N[C@H](Cc1ccccc1)C(=O)N[C@H](CCCN)C(=O)N[C@@H](C(=O)N[C@H](CO)C(=O)N[C@H](Cc1ccccc1)C(=O)N[C@@H](CO)C(=O)N[C@@H](CO)C(=O)N[C@H](CCCN)C(=O)N[C@@H](Cc1ccccc1)C(=O)N[C@@H](CO)C(=O)N[C@H](C(=O)N[C@@H](C(=O)N[C@@H](CCCN)C(=O)O)[C@H](C)CC)C(C)C)[C@H](C)CC [1F, paenimucillin A] (Decanoyl-[dF][dOrn][dI][dS][dF]SS[dOrn]FSV[dI][Orn]-OH) | 2 (≈ 1.23 µM) | 32 (≈ 19.6 µM) | 4 (≈ 2.45 µM) | 16 (≈ 9.82 µM) | 16 (≈ 9.82 µM) |  |  |  |  |  | MIC Acinetobacter baumannii (Acinetobacter baumannii; strain ATCC 17978, LB medium, broth microdilution, duplicate): 16 µg/mL (≈ 9.82 µM); MIC Enterococcus faecium (Enterococcus faecium; strain Com15, LB medium, broth microdilution, duplicate): 4 µg/mL (≈ 2.45 µM)
2 | CC[C@@H](C)[C@@H](NC(=O)[C@@H](NC(=O)[C@H](CO)NC(=O)[C@H](Cc1c[nH]c2ccccc12)NC(=O)[C@@H](CCCN)NC(=O)[C@H](CO)NC(=O)[C@H](CO)NC(=O)[C@@H](Cc1c[nH]c2ccccc12)NC(=O)[C@@H](CO)NC(=O)[C@H](NC(=O)[C@@H](CCCN)NC(=O)[C@@H](Cc1ccccc1)NC(C)=O)[C@H](C)CC)C(C)C)C(=O)N[C@@H](CCCN)C(=O)O [4W] (Ac-[dF][dOrn][dI][dS][dW]SS[dOrn]WSV[dI][Orn]-OH) | 2 (≈ 1.25 µM) | 4 (≈ 2.51 µM) | 1 (≈ 0.627 µM) | 4 (≈ 2.51 µM) | 2 (≈ 1.25 µM) | 2 (≈ 1.25 µM) | 1 (≈ 0.627 µM) | 16 (≈ 10 µM) | 2 (≈ 1.25 µM) | 32 (≈ 20.1 µM) | MIC for A. baumannii clinical isolate 1795 [1]: 2 µg/mL; MIC for A. baumannii clinical isolate 1797 [2]: 2 µg/mL; MIC for A. baumannii clinical isolate 1788 [3]: 2 µg/mL; MIC for A. baumannii clinical isolate 1790 [4]: 0.5 µg/mL; MIC for A. baumannii clinical isolate 1791 [5]: 0.5 µg/mL; MIC for A. baumannii clinical isolate S3 [6]: 4 µg/mL; MIC for A. baumannii clinical isolate S5 [7]: 4 µg/mL; MIC, toxicity assessment, C. albicans (C. albicans): 128 µg/mL (≈ 80.2 µM)
3 | CC[C@@H](C)[C@@H](NC(=O)[C@@H](NC(=O)[C@H](CO)NC(=O)[C@H](Cc1c[nH]c2ccccc12)NC(=O)[C@@H](CCCN)NC(=O)[C@H](CO)NC(=O)[C@H](CO)NC(=O)[C@@H](Cc1c[nH]c2ccccc12)NC(=O)[C@@H](CO)NC(=O)[C@H](NC(=O)[C@@H](CCCN)NC(=O)[C@H](N)Cc1ccccc1)[C@H](C)CC)C(C)C)C(=O)N[C@@H](CCCN)C(=O)O [5W] (H-[dF][dOrn][dI][dS][dW]SS[dOrn]WSV[dI][Orn]-OH) | 4 (≈ 2.57 µM) | 4 (≈ 2.57 µM) | 2 (≈ 1.29 µM) | 8 (≈ 5.15 µM) | 4 (≈ 2.57 µM) | 4 (≈ 2.57 µM) | 4 (≈ 2.57 µM) | 16 (≈ 10.3 µM) | 4 (≈ 2.57 µM) | 8 (≈ 5.15 µM) | 
4 | CCCCCCCCCC(=O)N[C@H](Cc1ccccc1)C(=O)N[C@H](CCCN)C(=O)N[C@@H](C(=O)N[C@H](CO)C(=O)N[C@H](Cc1c[nH]c2ccccc12)C(=O)N[C@@H](CO)C(=O)N[C@@H](CO)C(=O)N[C@H](CCCN)C(=O)N[C@@H](Cc1c[nH]c2ccccc12)C(=O)N[C@@H](CO)C(=O)N[C@H](C(=O)N[C@@H](C(=O)N[C@@H](CCCN)C(=O)O)[C@H](C)CC)C(C)C)[C@H](C)CC [1W, paenimucillin B] (Decanoyl-[dF][dOrn][dI][dS][dW]SS[dOrn]WSV[dI][Orn]-OH) | 1 (≈ 0.585 µM) | 128 (≈ 74.9 µM) | 16 (≈ 9.37 µM) | 64 (≈ 37.5 µM) | 2 (≈ 1.17 µM) |  | 128 (≈ 74.9 µM) |  |  | 4 (≈ 2.34 µM) | 
5 | CC[C@@H](C)[C@@H](NC(=O)[C@@H](NC(=O)[C@H](CO)NC(=O)[C@H](Cc1ccccc1)NC(=O)[C@@H](CCCN)NC(=O)[C@H](CO)NC(=O)[C@H](CO)NC(=O)[C@@H](Cc1ccccc1)NC(=O)[C@@H](CO)NC(=O)[C@H](NC(=O)[C@@H](CCCN)NC(=O)[C@H](N)Cc1ccccc1)[C@H](C)CC)C(C)C)C(=O)N[C@@H](CCCN)C(=O)O [5F] (H-[dF][dOrn][dI][dS][dF]SS[dOrn]FSV[dI][Orn]-OH) | 64 (≈ 43.4 µM) | 32 (≈ 21.7 µM) | 16 (≈ 10.8 µM) | 64 (≈ 43.4 µM) | 128 (≈ 86.7 µM) | 8 (≈ 5.42 µM) | 32 (≈ 21.7 µM) | 64 (≈ 43.4 µM) | 4 (≈ 2.71 µM) | 32 (≈ 21.7 µM) | 
6 | CN(C)[C@@H]1C(O)=C(C(N)=O)C(=O)[C@@]2(O)C(O)=C3C(=O)c4c(O)cccc4[C@@](C)(O)[C@H]3C[C@@H]12 [tetracycline, reference compound] |  |  |  |  |  |  |  |  |  |  | bacterial burden of wound, day 3 [8]: 6.4 ± 0.31 log CFU; MIC [9]: 0.25 µg/mL (≈ 0.563 µM)

— article PMC5784245, “An Optimized Synthetic-Bioinformatic Natural Product Antibiotic Sterilizes Multidrug-Resistant Acinetobacter baumannii-Infected Wounds” (mSphere, 2018)
